This assay relates to Human neonate fibroblasts (ATCC cell line CCD-1079sk). Briefly: Evaluation of cell membrane permeability function (fluorescence antibody technique, confocal microscopy). Format: cell-based. To be noted: 3.5 μg/mL in liquid culture medium, cultured 2 hours, FIG. 2. On the procedure: Human neonate fibroblasts (ATCC cell line CCD-1079sk) were used as the eukaryotic cells, and the cell membrane permeability capability of the 2 samples (constructs for transferring a foreign substance) obtained in Example 1 above was investigated.
More specifically, approximately 2×10^4 cells were cultured on a collagen-coated S-well slide overnight at 37° C. in 5% CO2 using a liquid culture medium (Eagle's MEM medium: comprising 0.1 mM NeAA, 1 mM sodium pyruvate, Earle's BSS (product of GIBCO) with 10% FBS (product of GIBCO).
The purified polypeptides obtained above were added to the cell culture (1.5 μg/mL of the polypeptide of Sample No. 1 and 3.5 μg/mL of the polypeptide of Sample No. 2), and culturing was continued for another 2 hours.
Then the supernatant was removed, the abovementioned D-PBS was added, and the cells were rinsed 3 times therewith on ice. Next, ice-cold methanol was added and the samples were let stand for 10 min at −20° C. to fix the cells. Then the methanol was removed, PBS solution containing 5% normal goat serum (product of MBL) was added, and blocking was carried out at room temperature for 1 hour. […]

Data on one substance can be found in patent US8603967B2, “Carrier peptide fragment and use thereof” (Toagosei Co., Ltd., priority 2009, dated 2013).

“Sample No. 2: Fusion polypeptide (SEQ ID NO: 7): Met, NoLS carrier KKRTLRKNDRKKR fused to N-terminal end of GFP, C-terminal polyhistidine tag”: the “location of the polypeptide transferred into the cells (nuclear translocation)” value (anti-GFP antibody staining merged with DAPI) was “transferred (translocated) to the nucleus and localized therein”. In addition, for the setting “anti-GFP antibody staining”, the “transfer of the polypeptide into the cells” value is recorded as “transfer of the polypeptide into the cells can be seen”.
